Measurements reported in article PMC9011347, “Small-Molecule Inhibitors Targeting Lipolysis in Human Adipocytes” (Journal of the American Chemical Society, 2022).

Biological target: T1, human ATGL (Homo sapiens, UniProt Q96AD5)
T1 construct: host or cells: Expi293 cells, crude lysate
T1 sequence (Q96AD5 1-504): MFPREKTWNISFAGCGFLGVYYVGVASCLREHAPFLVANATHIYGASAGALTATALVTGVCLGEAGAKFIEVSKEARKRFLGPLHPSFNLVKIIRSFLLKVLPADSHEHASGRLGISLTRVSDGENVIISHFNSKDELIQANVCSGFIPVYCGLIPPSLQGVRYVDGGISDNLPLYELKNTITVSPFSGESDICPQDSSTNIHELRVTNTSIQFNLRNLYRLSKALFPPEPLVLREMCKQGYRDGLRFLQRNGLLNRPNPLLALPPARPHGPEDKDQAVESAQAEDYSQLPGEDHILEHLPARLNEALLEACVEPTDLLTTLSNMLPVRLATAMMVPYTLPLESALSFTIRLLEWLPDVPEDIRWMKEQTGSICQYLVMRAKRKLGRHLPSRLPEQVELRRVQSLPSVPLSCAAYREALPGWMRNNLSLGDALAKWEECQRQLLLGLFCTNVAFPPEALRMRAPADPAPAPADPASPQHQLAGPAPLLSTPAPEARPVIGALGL
Assay: TAG hydrolase assay, lysates of Expi293 cells overexpressing ATGL, purified CGI-58, radiolabeled triolein
Type: biochemical
Settings: for Ki: NG-497 0.5 μM
Description: We previously developed Atglistatin (Ai), a selective inhibitor of mouse ATGL,[31],[32] which is ineffective against human ATGL.[17] Ai acts as a competitive inhibitor targeting the minimal active domain of ATGL ranging from aa 1–254.[33] This domain is highly conserved in different mammalian species (∼90% identity, Table 1) and comprises the patatin-like domain, eponymous for all members of the patatin-like phospholipase domain-containing (PNPLA) protein family.[34] We first investigated the species selectivity of Ai by performing TAG hydrolase assays[35] with lysates from Expi293 cells expressing ATGL orthologues of different species. The activity of ATGL is strongly stimulated by the co-activator protein comparative gene identification-58 (CGI-58, also known as α/β hydrolase domain containing 5, ABHD5)[36] and can be suppressed by the inhibitory protein G0/G1 switch 2 (G0S2).[37] We therefore determined ATGL activity in the presence and absence of mouse CGI-58, mouse G0S2, and Ai. As shown in Figure 1a–i, all ATGL orthologues were expressed, enzymatically active, stimulated by mouse CGI-58, and inactivated by mouse G0S2. Ai inhibited mouse (Figure 1a), rat (Figure 1b), goat (Figure 1c), dog (Figure 1e), and marmoset ATGL (Figure 1f), but not pig (Figure 1d), rhesus monkey (Figure 1g), or human ATGL (Figure 1h).
To develop an inhibitor for human ATGL, we screened compounds synthesized in the course of the development of Ai.[31] Screenings were performed in the presence of purified CGI-58 using cell lysates of Expi293 cells overexpressing ATGL as a source of enzymatic activity and radiolabeled triolein as substrate as described above (Figure 1). […] In an iterative optimization process, which encompassed the synthesis and testing of >150 compounds (not shown), we varied the nature of the top aryl ring (Figure 2a). Replacement of the top phenyl group with a pyridine moiety (compound 2) led to a significant improvement in inhibitor efficacy (IC50 = 3 μM), which we interpret as a result from a smaller angle between the 1,3-arrangement of the aryl- and the ester-substituents due to the shorter C–N bond length within the pyridine group. […] The introduction of a methoxy residue at this position finally led to compound NG-497 showing an IC50 value of 1 μM.
Experimental details, materials, and methods
Expression of recombinant ATGL constructs and preparation of cell lysates. Expi293 cells were cultivated in Expi293 Expression Medium (GIBCO, Thermo Fisher Scientific, Waltham, USA) at standard conditions (37°C, 5% CO2, 95% humidified atmosphere, 125 rpm). DNA constructs containing ATGL from different species and chimeric ATGL variants in pcDNA3.1(+)myc-His C Vector were obtained from BioCat GmbH (Heidelberg, Germany). Cells were transfected with ExpiFectamine293 Transfection Kit (GIBCO) in Opti-Mem reduced serum medium (GIBCO) according to the manufacturer’s instructions. After 48 h, cells were harvested by centrifugation and washed three times with PBS. Cells were disrupted in buffer A (0.25 M sucrose, 1 mM EDTA, 1 mM dithiothreitol, 20µg/ml leupeptin, 2 µg/ml antipain, 1 µg/ml pepstatin, pH 7.0) by sonication (Virsonic 475, Virtis, Gardiner, USA). Nuclei and debris were removed by centrifugation at 1,000 g and 4°C for 10 min. Protein concentrations were determined using Bio-Rad protein assay (Bio-Rad 785, Bio-Rad Laboratories, Munich, Germany) using BSA as standard.
Expression and purification of mouse CGI-58. CGI-58 was expressed and purified as described 1. In brief, the coding sequence of mouse Cgi-58 was cloned into pHis-Sumo and co-transformed with the plasmid pTf16 expressing the chaperone Tig into E. coli BL21(DE3). Cells were cultured overnight at 37°C and 180 rpm in the presence of 40 µg/ml kanamycin and 34 µg/ml chloramphenicol. Thereafter, cells were transferred into fresh LB medium, grown until OD600 of 0.6, and expression was induced […]
by the addition of 0.5 mM IPTG. […]

CCOc1ccc(-c2cc(OC)cc(C(=O)OC(C)C)n2)cc1 [NG-497]
inhibition of ATGL orthologue (NG-497 50 μM, human ATGL): inactivates | inactivation of TAG hydrolase activity of ATGL (PNPLA2) (NG-497 100 μM): inactivated | mechanism of inhibition (Lineweaver–Burk analysis) (increase of apparent Km, Vmax not affected): reversible and competitive inhibition | IC50 (inhibition of TAG hydrolase activity of human ATGL, Expi293 lysates, purified CGI-58, radiolabeled triolein): 1000 nM | Ki (nonlinear regression (GraphPad Prism), Figure 2c): 490 ± 20 nM | Ki (nonlinear regression, varying substrate concentration): 500 nM
